Test results published in patent US9663899B2, “Method for making lignocellulosic paper and paper product” (Solenis Technologies, L.P., priority 2015, dated 2017).

Test system: Laccase NS51003
Assay: ABTS laccase assay for relative laccase activity
Format: biochemical, Aspergillus
Method: One unit of activity is equal to the micromole of the oxidized product from ABTS per min per mg protein at pH 4.0 to 6.0 at 23° C. in an acetate buffer. […] A diluted enzyme solution (1.5 milliliter (ml)) was added to a mixture of 1.5 ml ABTS (0.5 millimole (mM)) solution and 1.5 ml of sodium acetate buffer (1 mM) to initiate the oxidization reaction. After mixing, incubation was conducted at 23° C., while the change in absorbance per minute was measured at 420 nm. Two Aspergillus laccases were used both from Novozymes (Bagsvaerd, Denmark), to compare with the enzyme compositions. […] NS51002 alone worked best at pH 4-5 while NS51003 worked best at pH 5-6. The ABTS laccase assay was used to evaluate the effects of cationic fixative polymer, lipase and the laccase activator of the dry strength compositions on laccase activity. The same amount of laccase active in each composition was used in the assay. In Table III, the relative activity numbers were determined by normalizing the values based on that of laccase alone at 100%.

What does the source list for O=S(=O)([O-])[O-].[Cu+2] [copper sulfate]?
effect on laccase activity (copper level 0.5 wt. %): lost some of its original activity; effect on laccase activity (copper sulfate in the composition): not significant; effect on laccase activity (dosage of copper sulfate higher than 0.5%): negatively affected
